Values after ≈ are worked out from the molar mass of the structure shown.
Experiments:
Format in all cases: functional
[1] = test system: Mycobacterium tuberculosis; test: Antimicrobial activity against Mycobacterium tuberculosis H37Rv ATCC 27294 after 7 days by MABA; details: for MIC90: Mycobacterium tuberculosis, H37Rv ATCC 27294, 168 h
[2] = test system: Bacillus cereus; test: Antimicrobial activity against Bacillus cereus ATCC 11778 after 24 hr by agar streak dilution method; details: ATCC 11778, 24 h
[3] = test system: Micrococcus luteus; test: Antimicrobial activity against Micrococcus luteus ATCC 4698 after 24 hr by agar streak dilution method; details: ATCC 4698, 24 h
[4] = test system: Staphylococcus epidermidis; test: Antimicrobial activity against Staphylococcus epidermidis ATCC 155 after 24 hr by agar streak dilution method; details: ATCC 155, 24 h
[5] = test system: Staphylococcus aureus; test: Antimicrobial activity against Staphylococcus aureus ATCC 9144 after 24 hr by agar streak dilution method; details: ATCC 9144, 24 h
[6] = test system: Bacillus cereus; test: Antimicrobial activity against Bacillus cereus ATCC 11778 at 100 ug/ml after 24 hr by paper disk diffusion method; details: ATCC 11778, 24 h, read-out: IZ
[7] = test system: Micrococcus luteus; test: Antimicrobial activity against Micrococcus luteus ATCC 4698 at 100 ug/ml after 24 hr by paper disk diffusion method; details: ATCC 4698, 24 h, read-out: IZ
[8] = test system: Staphylococcus epidermidis; test: Antimicrobial activity against Staphylococcus epidermidis ATCC 155 at 100 ug/ml after 24 hr by paper disk diffusion method; details: ATCC 155, 24 h, read-out: IZ
[9] = test system: Staphylococcus aureus; test: Antimicrobial activity against Staphylococcus aureus ATCC 9144 at 100 ug/ml after 24 hr by paper disk diffusion method; details: ATCC 9144, 24 h, read-out: IZ

O=C1/C(=N\c2ccc(/N=C/c3ccc([N+](=O)[O-])cc3)cc2)c2ccccc2N1Cc1ccccc1
inhibition (INH) [1]: 80%
MIC [2]: 19.2 µg/mL (≈ 41.7 µM)
MIC [3]: 27.8 µg/mL (≈ 60.4 µM)
MIC [4]: 20.4 µg/mL (≈ 44.3 µM)
MIC [5]: 25.2 µg/mL (≈ 54.7 µM)
zone of inhibition at 100 µg/mL [6]: 16 mm
zone of inhibition at 100 µg/mL [7]: 13 mm
zone of inhibition at 100 µg/mL [8]: 19 mm
zone of inhibition at 100 µg/mL [9]: 15 mm

O=C1/C(=N\c2ccc(/N=C/c3ccc(Br)cc3)cc2)c2ccccc2N1Cc1ccccc1
inhibition (INH) [1]: 96%
MIC90 [1]: 4.26 µM (≈ 2.11 µg/mL)
MIC [2]: 15.3 µg/mL (≈ 30.9 µM)
MIC [3]: 16.3 µg/mL (≈ 33 µM)
MIC [4]: 21.2 µg/mL (≈ 42.9 µM)
MIC [5]: 19.3 µg/mL (≈ 39 µM)
zone of inhibition at 100 µg/mL [6]: 17 mm
zone of inhibition at 100 µg/mL [7]: 20 mm
zone of inhibition at 100 µg/mL [8]: 18 mm
zone of inhibition at 100 µg/mL [9]: 19 mm

O=C1/C(=N\c2ccc(/N=C/c3ccc(Cl)cc3)cc2)c2ccccc2N1Cc1ccccc1
inhibition (INH) [1]: 90%
MIC [2]: 12.1 µg/mL (≈ 26.9 µM)
MIC [3]: 11.2 µg/mL (≈ 24.9 µM)
MIC [4]: 9.8 µg/mL (≈ 21.8 µM)
MIC [5]: 10.4 µg/mL (≈ 23.1 µM)
zone of inhibition at 100 µg/mL [6]: 19 mm
zone of inhibition at 100 µg/mL [7]: 23 mm
zone of inhibition at 100 µg/mL [8]: 25 mm
zone of inhibition at 100 µg/mL [9]: 21 mm

O=C1/C(=N\c2ccc(/N=C/c3ccccc3O)cc2)c2ccccc2N1Cc1ccccc1
inhibition (INH) [1]: 90%
MIC [2]: 16.7 µg/mL (≈ 38.7 µM)
MIC [3]: 20.6 µg/mL (≈ 47.7 µM)
MIC [4]: 17.6 µg/mL (≈ 40.8 µM)
MIC [5]: 13.2 µg/mL (≈ 30.6 µM)
zone of inhibition at 100 µg/mL [6]: 18 mm
zone of inhibition at 100 µg/mL [7]: 17 mm
zone of inhibition at 100 µg/mL [8]: 20 mm
zone of inhibition at 100 µg/mL [9]: 20 mm

COc1ccc(/C=N/c2ccc(/N=C3\C(=O)N(Cc4ccccc4)c4ccccc43)cc2)cc1
inhibition (INH) [1]: 80%
MIC [2]: 17.1 µg/mL (≈ 38.4 µM)
MIC [3]: 12.4 µg/mL (≈ 27.8 µM)
MIC [4]: 14.8 µg/mL (≈ 33.2 µM)
MIC [5]: 13.6 µg/mL (≈ 30.5 µM)
zone of inhibition at 100 µg/mL [6]: 17 mm
zone of inhibition at 100 µg/mL [7]: 20 mm
zone of inhibition at 100 µg/mL [8]: 23 mm
zone of inhibition at 100 µg/mL [9]: 19 mm

COc1ccc(/C=N/c2ccc(/N=C3\C(=O)N(Cc4ccccc4)c4ccccc43)cc2)cc1OC
inhibition (INH) [1]: 73%
MIC [2]: 21.2 µg/mL (≈ 44.6 µM)
MIC [3]: 19.6 µg/mL (≈ 41.2 µM)
MIC [4]: 20.2 µg/mL (≈ 42.5 µM)
MIC [5]: 11.8 µg/mL (≈ 24.8 µM)
zone of inhibition at 100 µg/mL [6]: 16 mm
zone of inhibition at 100 µg/mL [7]: 17 mm
zone of inhibition at 100 µg/mL [8]: 18 mm
zone of inhibition at 100 µg/mL [9]: 22 mm

COc1cc(/C=N/c2ccc(/N=C3\C(=O)N(Cc4ccccc4)c4ccccc43)cc2)ccc1O
inhibition (INH) [1]: 80%
MIC [2]: 18.6 µg/mL (≈ 40.3 µM)
MIC [3]: 18.7 µg/mL (≈ 40.5 µM)
MIC [4]: 13.8 µg/mL (≈ 29.9 µM)
MIC [5]: 18.2 µg/mL (≈ 39.4 µM)
zone of inhibition at 100 µg/mL [6]: 17 mm
zone of inhibition at 100 µg/mL [7]: 19 mm
zone of inhibition at 100 µg/mL [8]: 22 mm
zone of inhibition at 100 µg/mL [9]: 19 mm

CN(C)c1ccc(/C=N/c2ccc(/N=C3\C(=O)N(Cc4ccccc4)c4ccccc43)cc2)cc1
inhibition (INH) [1]: 79%
MIC [2]: 20.7 µg/mL (≈ 45.1 µM)
MIC [3]: 19.7 µg/mL (≈ 43 µM)
MIC [4]: 24 µg/mL (≈ 52.3 µM)
MIC [5]: 22.8 µg/mL (≈ 49.7 µM)
zone of inhibition at 100 µg/mL [6]: 15 mm
zone of inhibition at 100 µg/mL [7]: 18 mm
zone of inhibition at 100 µg/mL [8]: 14 mm
zone of inhibition at 100 µg/mL [9]: 17 mm

O=C(O)c1cn(C2CC2)c2cc(N3CCNCC3)c(F)cc2c1=O [CIPROFLOXACIN]
MIC [2]: 0.3 µg/mL (≈ 0.905 µM)
MIC [3]: 0.1 µg/mL (≈ 0.302 µM)
MIC [4]: 0.35 µg/mL (≈ 1.06 µM)
MIC [5]: 0.2 µg/mL (≈ 0.604 µM)
zone of inhibition at 100 µg/mL [6]: 25 mm
zone of inhibition at 100 µg/mL [7]: 30 mm
zone of inhibition at 100 µg/mL [8]: 29 mm
zone of inhibition at 100 µg/mL [9]: 25 mm

NNC(=O)c1ccncc1 [ISONIAZID]
inhibition (INH) [1]: 100%
MIC90 [1]: 0.74 µM (≈ 0.101 µg/mL)

COc1c(N2C[C@@H]3CCCN[C@@H]3C2)c(F)cc2c(=O)c(C(=O)O)cn(C3CC3)c12 [MOXIFLOXACIN]
inhibition (INH) [1]: 100%
MIC90 [1]: 0.25 µM (≈ 0.1 µg/mL)

O=[N+]([O-])c1cn2c(n1)OC[C@@H](OCc1ccc(OC(F)(F)F)cc1)C2 [PRETOMANID]
inhibition (INH) [1]: 100%
MIC90 [1]: 0.25 µM (≈ 0.0898 µg/mL)

CO[C@H]1/C=C/O[C@@]2(C)Oc3c(C)c(O)c4c(O)c(c(/C=N/N5CCN(C)CC5)c(O)c4c3C2=O)NC(=O)/C(C)=C\C=C\[C@H](C)[C@H](O)[C@@H](C)[C@@H](O)[C@@H](C)[C@H](OC(C)=O)[C@@H]1C [RIFAMPIN]
inhibition (INH) [1]: 100%
MIC90 [1]: 0.06 µM (≈ 0.0494 µg/mL)

From ChEMBL document CHEMBL3045173, “Synthesis, antibacterial, and antitubercular studies of some novel isatin derivatives” (2012)
